Our source for the IC50 and ED50 values is ChEMBL document CHEMBL1149986, “Topical antiinflammatory dehydroabietylamine derivatives. IV” (Bioorg Med Chem Lett, 1993).

What is called IC50 is the point on the concentration scale where inhibition reaches its midpoint. A low value points to higher potency.

The target of assay [1] is T1, Polyunsaturated fatty acid 5-lipoxygenase (Rattus norvegicus, UniProt P12527).
T1 sequence (P12527 whole entry): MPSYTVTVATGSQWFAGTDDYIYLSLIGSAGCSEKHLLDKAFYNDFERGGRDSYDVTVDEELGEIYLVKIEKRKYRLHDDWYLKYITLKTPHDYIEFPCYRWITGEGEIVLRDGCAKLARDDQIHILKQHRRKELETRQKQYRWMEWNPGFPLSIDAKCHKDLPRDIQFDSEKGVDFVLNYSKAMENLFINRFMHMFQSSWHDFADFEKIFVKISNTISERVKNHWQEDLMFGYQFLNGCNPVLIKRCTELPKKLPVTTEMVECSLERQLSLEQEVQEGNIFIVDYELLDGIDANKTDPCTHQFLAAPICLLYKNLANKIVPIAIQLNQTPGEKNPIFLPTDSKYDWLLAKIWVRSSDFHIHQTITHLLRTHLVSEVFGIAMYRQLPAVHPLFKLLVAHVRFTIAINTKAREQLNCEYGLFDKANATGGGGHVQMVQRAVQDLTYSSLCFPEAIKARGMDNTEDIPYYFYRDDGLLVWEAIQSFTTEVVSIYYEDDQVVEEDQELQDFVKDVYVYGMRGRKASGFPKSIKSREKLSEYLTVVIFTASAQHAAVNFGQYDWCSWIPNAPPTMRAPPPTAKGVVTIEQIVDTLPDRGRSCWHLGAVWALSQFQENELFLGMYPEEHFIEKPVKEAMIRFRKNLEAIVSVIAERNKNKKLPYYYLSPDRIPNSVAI
Nature of the assay: Tested for its inhibitory activity against 5-lipoxygenase.

Assay [2] concerns Mus musculus. Nature of the assay: Tested for its antiinflammatory activity in the A-23187 (calcium ionophore) ear edema model. It counts as functional.
Assay [3] relates to Mus musculus. Nature of the assay: Tested for its antiinflammatory activity in the arachidonic acid(AA) induced ear edema model. Format: functional.
Assay [4] relates to Mus musculus. Nature of the assay: Tested for its antiinflammatory activity in the contact sensitive (CS) ear edema model. It counts as functional.
Assay [5] relates to Mus musculus. Nature of the assay: Tested for its antiinflammatory activity in the tetradecanoyl phorbol acetate induced ear edema model (TPA Ear). Format: functional.
Assay [6] has as its target Phospholipase A2, major isoenzyme (Sus scrofa, UniProt P00592). Nature of the assay: Tested for its inhibitory activity against Phospholipase A2 (PLA2). Set-up: species or system Mus musculus.
The next assay deals with T2, Cyclooxygenase (Bos taurus, UniProt O62664+O62698).
T2 sequence (O62664 whole entry): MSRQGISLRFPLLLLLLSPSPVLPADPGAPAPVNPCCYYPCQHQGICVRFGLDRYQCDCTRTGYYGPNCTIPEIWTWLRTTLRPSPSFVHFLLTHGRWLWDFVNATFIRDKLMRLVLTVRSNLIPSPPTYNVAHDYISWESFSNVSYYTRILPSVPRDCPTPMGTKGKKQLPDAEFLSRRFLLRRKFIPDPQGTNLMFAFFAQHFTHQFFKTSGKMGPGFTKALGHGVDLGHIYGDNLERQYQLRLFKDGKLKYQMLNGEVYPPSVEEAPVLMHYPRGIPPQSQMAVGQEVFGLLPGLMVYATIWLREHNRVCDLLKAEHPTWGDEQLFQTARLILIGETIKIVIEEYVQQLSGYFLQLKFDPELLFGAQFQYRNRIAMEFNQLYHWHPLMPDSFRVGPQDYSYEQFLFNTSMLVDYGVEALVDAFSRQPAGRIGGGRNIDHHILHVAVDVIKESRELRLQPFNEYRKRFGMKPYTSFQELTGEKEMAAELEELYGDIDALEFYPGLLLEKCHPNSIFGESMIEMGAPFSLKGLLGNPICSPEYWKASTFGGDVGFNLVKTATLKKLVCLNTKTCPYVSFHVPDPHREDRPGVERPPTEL
T2 sequence (O62698 whole entry): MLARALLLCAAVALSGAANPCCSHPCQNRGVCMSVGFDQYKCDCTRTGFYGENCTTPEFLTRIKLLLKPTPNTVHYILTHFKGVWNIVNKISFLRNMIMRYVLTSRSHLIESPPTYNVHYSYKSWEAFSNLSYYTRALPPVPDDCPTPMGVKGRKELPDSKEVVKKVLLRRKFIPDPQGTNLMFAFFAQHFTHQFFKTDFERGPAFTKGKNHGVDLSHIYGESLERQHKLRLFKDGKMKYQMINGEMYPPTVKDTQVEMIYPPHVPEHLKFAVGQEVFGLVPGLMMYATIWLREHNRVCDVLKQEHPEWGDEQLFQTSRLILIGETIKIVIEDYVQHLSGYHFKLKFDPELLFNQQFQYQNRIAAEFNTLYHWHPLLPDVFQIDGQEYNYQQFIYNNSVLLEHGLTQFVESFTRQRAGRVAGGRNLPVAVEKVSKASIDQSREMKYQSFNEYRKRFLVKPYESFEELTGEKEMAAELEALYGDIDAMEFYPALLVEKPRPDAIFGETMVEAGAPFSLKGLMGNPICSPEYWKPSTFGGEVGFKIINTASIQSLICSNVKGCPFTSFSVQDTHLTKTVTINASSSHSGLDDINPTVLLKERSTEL
Nature of the assay: Tested for its inhibitory activity against PGS (prostaglandin synthetase). Format: protein assay.

Phospholipase A2, major isoenzyme, sequence (P00592 whole entry): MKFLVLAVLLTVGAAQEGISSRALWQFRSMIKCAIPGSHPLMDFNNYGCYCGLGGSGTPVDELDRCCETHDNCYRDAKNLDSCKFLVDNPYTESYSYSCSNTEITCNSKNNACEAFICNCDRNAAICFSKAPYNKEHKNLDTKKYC

As for `CC(=O)NC(CCN(C[C@]1(C)CCC[C@]2(C)c3ccc(C(C)C)cc3CCC12)C(C)=O)c1ccc(F)cc1` (stereo partly specified), the IC50 in assay [1] was > 25 µM; in assay [6], 90.5 µM; against Cyclooxygenase it was 124 µM. Further, the ED50 was 84.7 ug ear-1 in the assay on Mus musculus [2], >100 ug ear-1 in the assay on Mus musculus [3], >100 ug ear-1 in the assay on Mus musculus [4] and 10 ug ear-1 with Mus musculus [5].

For `CC(C)c1ccc2c(c1)CCC1[C@](C)(CNCC3CCCN3)CCC[C@]21C.Cl.Cl` (stereo partly specified), the ED50 with Mus musculus [2] was 200 ug ear-1; with Mus musculus [3], >100 ug ear-1; in the assay with Mus musculus [4] it was 90 ug ear-1; in the assay on Mus musculus [5], 18 ug ear-1. For the same molecule, the values for the IC50 (in assay [6]; on Cyclooxygenase) were 28 µM and 62 µM, respectively.

As to `CC(C)c1ccc2c(c1)CCC1[C@](C)(CNCc3ccccc3C(=O)O)CCC[C@]21C.Cl` (stereo partly specified), the figures for the IC50 (in assay [1]; in assay [6]; against Cyclooxygenase) were > 25 µM, 34.5 µM and 220 µM, respectively. For the same molecule, the ED50 in the assay with Mus musculus [2] was 64.1 ug ear-1; in the assay with Mus musculus [3] it was >100 ug ear-1; in the assay with Mus musculus [4] it was >100 ug ear-1; with Mus musculus [5], 16 ug ear-1.

On to `CC(N)CCCNC[C@]1(C)CCC[C@]2(C)c3ccc(C(C)C)cc3CCC12.Cl.Cl` (stereo partly specified), for which the IC50 came out at 1.2 µM in assay [1], 5.4 µM in assay [6] and 390 µM against Cyclooxygenase. The ED50 in the assay on Mus musculus [2] is >200 ug ear-1; in the assay with Mus musculus [3] it was 100 ug ear-1; in the assay on Mus musculus [4], >100 ug ear-1; in the assay on Mus musculus [5], 18.8 ug ear-1.

For `CC(C)c1ccc2c(c1)CC[C@H]1C(C)(CN)CCC[C@]21C.Cl` (stereo partly specified), the IC50 is 8 µM in assay [1], 21 µM in assay [6] and 71 µM against Cyclooxygenase. Further, the ED50 is recorded as >100 ug ear-1 in the assay with Mus musculus [3], 19.8 ug ear-1 with Mus musculus [4] and 130.7 ug ear-1 in the assay with Mus musculus [5].

For the molecule `C[C@@H]1C[C@H]2[C@@H]3CCC4=CC(=O)C=C[C@]4(C)[C@@]3(F)[C@@H](O)C[C@]2(C)[C@@]1(O)C(=O)CO` [DEXAMETHASONE], the IC50 was 120 µM in assay [1] and > 750 µM in assay [6]. Moreover, the ED50 is listed as 0.5 ug ear-1 in the assay on Mus musculus [2], >100 ug ear-1 in the assay on Mus musculus [3] and 0.7 ug ear-1 in the assay on Mus musculus [4].

Regarding `COc1ccc2c(c1)c(CC(=O)O)c(C)n2C(=O)c1ccc(Cl)cc1` [INDOMETHACIN], in assay [1], the IC50 is > 250 µM. Further, the figures for the ED50 in the assay with Mus musculus [2] and in the assay with Mus musculus [3] were 254 ug ear-1 and 1000 ug ear-1, respectively.

Regarding `CCN(CC)CCCC(C)Nc1c2ccc(Cl)cc2nc2ccc(OC)cc12` (stereo unspecified) [QUINACRINE], the ED50 in the assay on Mus musculus [2], with Mus musculus [3] and in the assay on Mus musculus [5] was >100 ug ear-1 throughout. Also, the values for the IC50 (in assay [6]; on Cyclooxygenase) were 100 µM and 32.6 µM, respectively.
